Experimental data published in patent US8791299B2, “Compounds for the inhibition of herpes viruses” (Universite Laval, priority 2009, dated 2014).
Where two headings read alike, the source gives them in different places.

Assays:
VZV = assay: Plaque reduction assay (PRA), VZV in HFFs; format: cell-based, varicella zoster virus; conditions: for antiviral activity by PRA: ACV-resistant VZV strains; for in vitro antiviral activity (concluding summary, words): VZV
Experimental: (§1) Top leading compounds were purchased from Sigma-Aldrich or ChemBridge for in vitro testing. On the day of the assay, compounds were prepared in DMSO at a concentration of 10 mM. Stock solutions were then diluted in Eagle's minimal essential medium (MEM) to the appropriate concentrations. ACV, GCV and FOS (prepared in MEM) were used as comparators for susceptible and resistant recombinant viruses and clinical isolates.
(§2) Antiviral activity of compounds 1 to 8 was first tested at two concentrations, i.e. 1 μM and 10 μM, along with currently-available first-line drugs (ACV for HSV/VZV and GCV for CMV). Then, 50% inhibitory concentration (IC50) values were determined for the top leading compounds in comparison with ACV, GCV and FOS using a standard plaque reduction assay (PRA). Briefly, Vero cells or HFFs seeded in 24-well plates were inoculated with 40 plaque forming units (PFUs) of recombinant viruses or clinical isolates. Infected cells were incubated with serial drug concentrations for appropriate periods of time. Cells were fixed and stained. The number of plaques was counted in each well and expressed in percentage of the PFUs in no-drug control wells. Recombinant and clinical viral strains were considered resistant to a drug if their IC50 values were at least 2.5 times greater than that of the representative wild-type strains.

HSV-1 = assay: Plaque reduction assay (PRA), HSV-1 in Vero cells; format: cell-based, herpes simplex 1; conditions: for antiviral activity by PRA: wild-type HSV-1; for in vitro antiviral activity (concluding summary, words): HSV-1; for factor by which less active than ACV (IC50): representative wild-type HSV strains, PRA
Experimental: as §1, §2

HSV-2 = assay: Plaque reduction assay (PRA), HSV-2 in Vero cells; format: cell-based, herpes simplex 2; conditions: for antiviral activity by PRA: wild-type HSV-2; for in vitro antiviral activity (concluding summary, words): HSV-2; for factor by which less active than ACV (IC50): representative wild-type HSV strains, PRA
Experimental: as §1, §2

CMV = assay: Plaque reduction assay (PRA), CMV in HFFs; format: cell-based, cytomegalovirus; conditions: for antiviral activity by PRA: wild-type CMV isolate
Experimental: as §1, §2

[1] = Parallel Artificial Membrane Permeability Assay (PAMPA); format: in vitro ADME; conditions: for Papp at 5 h: 5 h incubation, n=4, read-out: apparent permeability coefficient (Papp)
Experimental: Passive membrane permeability was determined using Parallel Artificial Membrane Permeability Assay (PAMPA). Initial concentrations of compounds 2 and 3 used for this assay were 37 and 2.5 respectively. Membrane area was 0.3 cm^2. After a 5 h incubation, fractions were taken on both sides of the membrane and compound concentrations were determined by LC-MS/MS. The apparent permeability coefficient (Papp) was calculated using the equation Papp=(dQ/dtAc0), where dQ/dt is the appearance rate of compound in the acceptor compartment, A is the surface area of the transwell membrane, and co is the initial concentration in the donor compartment.

[2] = Microsomal stability in rat liver microsomes; format: in vitro ADME; conditions: Sprague-Dawley; for half-life at 2 μM: rat liver microsomes 1 mg/ml, 2 μM compound, 37° C., NADPH, read-out: Half-life (t1/2); for CLint scaled at 2 μM: rat liver microsomes
Experimental: Sprague-Dawley rat liver microsomes (concentration 1 mg/ml) were incubated at 37° C. with 2 μM of compounds 2 or 3 in PBS containing 5 mM MgCl2 and 1 mM NADPH. The antihypertensive drug reserpine was used as a reference compound. Aliquots of 50 μl were withdrawn at different time intervals and placed in 96-well plates containing 50 μL of acetonitrile on ice. Samples were then mixed and centrifuged at 3000 rpm and 10 μL were injected in a liquid chromatography system (Agilent 1100 Binary Pumps). The aliquots from liquid chromatography were subjected to mass spectrometry analysis on SCIEX API4000 with TurboIonSpray ionization source to determine the remaining percentage of the parent compound. Intrinsic clearance (Clint) estimates were determined using the rate of parent compound disappearance. The slope (-k) was determined by linear regression analysis from the linear portion of the natural logarithm of the test compound concentration versus time plot. The […] (t1/2) was calculated according to k=ln 2/t1/2. The microsomal Clint can be derived from the equation Clint=kVfu (mL/min/mg protein) where fu is the unbound fraction and V is the volume of the incubation expressed in milliliters per mg of microsomal protein. As fu is not known for the tested compounds, the calculation was performed with fu=1 (V). The Clint was also extrapolated to the whole liver protein.

Vero cells = assay: MTS cell proliferation (cytotoxicity) assay on Vero cells; conditions: for therapeutic index (CC50/IC50): CC50 Vero cells, IC50 of the HSV-1 reference strain (H25); for toxicity (CC50) compared with ACV, GCV and FOS: Vero cells, MTS assay
Experimental: (§3) Human foreskin fibroblasts (HFFs) and African green monkey kidney cells (Vero) were grown in MEM supplemented with 10% fetal bovine serum. Cells were maintained at 37° C. in a humidified 5% CO2 atmosphere. Vero cells and HFFs were used for propagation of viral strains and susceptibility assays for HSV-1/HSV-2 and VZV/CMV, respectively. Clinical strains H25 (HSV-1), HSV22 (HSV-2) as well as laboratory strains KOS(HSV-1), Ellen (VZV) and AD169 (CMV) were used as wild-type susceptible reference isolates. Clinical strains C119629 (HSV-1), C114093 (HSV-1), C80249 (HSV-1), L920062 (HSV-1), MS2 (HSV-2), C75134 (HSV-2), W-940012 (HSV-2), C72984 (HSV-2), D-900180 (HSV-2), M-890546 (HSV-2), P-920056 (HSV-2) and GB2000VZV (VZV) as well as laboratory strains Xbaf (CMV) and VQA3 (CMV) were used as drug (ACV/GCV/FOS)— resistant isolates. All clinical strains starting with the letter C originated from the Quebec City clinical virology laboratory.
(§4) This assay is based on the use of solutions of a tetrazolium salt (3-(4,5-dimethylthiazol-2-yl)-5-(3-carboxymethoxyphenyl)-2-(4-sulphophenyl)-2H-tetrazolium, inner salt; MTS) and an electron coupling reagent (phenazine methosulfate; PMS). The tetrazolium salt is reduced by living cells to yield a formazan product that can be assayed colorimetrically. Briefly, HFFs and Vero cells were seeded in 96-well plates. After 24 h, media was aspirated and 100 μl of compounds diluted in MEM at concentrations up to 100 μM were added to wells in quaduplicate. After incubation at 37° C. for 3 days, 10 μl of a solution of MTS and PMS were added to each well. The plates were incubated at 37° C. for 2 h. The absorbance of the supernatant was read at a wavelength of 492 nm to measure cell viability compared to no-drug control wells. The drug concentration was plotted against the optical density of each sample and cellular toxicity (CC50) was calculated using GraphPad Prism version 5.0 (GraphPad Inc., La Jolla, Calif., USA).

[3] = system: Human foreskin fibroblasts (HFFs); assay: MTS cell proliferation (cytotoxicity) assay on HFFs; conditions: for toxicity (CC50) compared with ACV, GCV and FOS: HFFs, MTS assay
Experimental: as §3, §4

[4] = fu=1, read-out: intrinsic clearance (Clint) extrapolated to whole rat liver

Which results are given for “3-chloro-N-(2-{2-[(E)-2-(1-hydroxynaphthalen-2-yl)ethenyl]hydrazinyl}-2-oxoethyl)benzamide [Compound C3-2]”?
antiviral activity by PRA (VZV): not active; antiviral activity by PRA (HSV-1): not active; antiviral activity by PRA (HSV-2): not active; antiviral activity by PRA (CMV): not active

What does the source list for `O=C(CNC(=O)c1cccc2ccccc12)N/N=C/c1ccccc1O` [Compound 2, N-{2-[(2E)-2-(2-hydroxybenzylidene)hydrazinyl]-2-oxoethyl}naphthalene-1-carboxamide]?
in vitro antiviral activity (concluding summary, words) (VZV): highly active; factor by which less active than ACV (IC50) (VZV; representative wild-type VZV strain, PRA): 2 to 3 fold; permeability class [1]: high (high (Papp>10)); Papp at 5 h [1]: 11.3 ± 1.17 ×10⁻⁶ cm/s; half-life at 2 μM [2]: 33 min; CLint scaled at 2 μM [2, 4]: 37 mL/min/kg; therapeutic index (CC50/IC50) (Vero cells): 19.3; toxicity (CC50) compared with ACV, GCV and FOS (Vero cells): somewhat more toxic; IC50 value increases compared to the representative wild-type strains (HSV-1; ACV- and/or FOS-resistant HSV-1 strains, Vero cells): 0.7 to 1.7 fold; in vitro antiviral activity (concluding summary, words) (HSV-1): highly active; factor by which less active than ACV (IC50) (HSV-1): 2 to 3 fold; toxicity (CC50) compared with ACV, GCV and FOS [3]: somewhat more toxic; IC50 value increases compared to the representative wild-type strains (HSV-2; ACV- and/or FOS-resistant HSV-2 strains, Vero cells): 0.7 to 1.7 fold; in vitro antiviral activity (concluding summary, words) (HSV-2): highly active; factor by which less active than ACV (IC50) (HSV-2): 2 to 3 fold

For `C=CCc1cccc(/C=N/NC(=O)CNC(=O)c2cccc(Cl)c2)c1O` [Compound 3, 3-chloro-N-(2-{(2E)-2-[2-hydroxy-3-(prop-2-en-1-yl)benzylidene]hydrazinyl}-2-oxoethyl)benzamide], which permeability class [1] is on record?
Its permeability class is “intermediate (intermediate (1<Papp<10))”.

And the Papp at 5 h [1]?
The Papp at 5 h was 3.4 ± 0.45 ×10⁻⁶ cm/s.

What about the half-life at 2 μM [2] of the same molecule?
The half-life at 2 μM was 22 min.

What about the CLint scaled at 2 μM [2, 4] of the same molecule?
Its CLint scaled at 2 μM is 62 mL/min/kg.

And the “toxicity (CC50) compared with ACV, GCV and FOS” value (Vero cells)?
The value was “somewhat more toxic”.

And the “therapeutic index (CC50/IC50)” value ([3]; CC50 HFFs, IC50 of the CMV reference strain (AD169))?
The value was 6.6.

What about the “toxicity (CC50) compared with ACV, GCV and FOS” value [3] of the same molecule?
The value was “somewhat more toxic”.

And the “in vitro antiviral activity (concluding summary, words)” value (shortened to “in vitro antiviral activity”) (CMV; CMV)?
The value was “highly active”.

What about the “factor by which less active than GCV (IC50)” value (CMV; CMV reference strain, PRA) of the same molecule?
Its value is 2 fold.

And the “IC50 value increases compared to the representative wild-type strain” value (CMV; GCV- and/or FOS-resistant CMV strains, HFF cells)?
The value was 1 to 2 fold.

For `COc1ccc(O)c(C=NNC(=O)CNC(=O)c2cccc3ccccc23)c1` [Compound 9, N-(2-(2-(2-hydroxy-5-methoxybenzylidene)hydrazino)-2-oxoethyl)-1-naphthamide], which “factor by which less active than ACV (IC50)” value (HSV-1) is on record?
Its value is 3 to 4 fold.

And the “factor by which less active than ACV (IC50)” value (HSV-2)?
The value was 3 to 4 fold.

Which results are given for `O=C(CNC(=O)c1cccc2ccccc12)N/N=C/c1c(O)cccc1O` [Compound C2.05, N-{2-[(2E)-2-(2,6-dihydroxybenzylidene)hydrazinyl]-2-oxoethyl}naphthalene-1-carboxamide]?
antiviral activity by PRA (VZV): active against wild-type HSV-2 only; antiviral activity by PRA (HSV-1): active against wild-type HSV-2 only; antiviral activity by PRA (HSV-2): active; antiviral activity by PRA (CMV): not active

Which results are given for `O=C(CNC(=O)c1cccc2ccccc12)N/N=C/c1ncccc1O` [Compound C2.11, N-(2-{(2E)-2-[(3-hydroxypyridin-2-yl)methylidene)hydrazinyl}-2-oxoethyl)naphthalene-1-carboxamide]?
antiviral activity by PRA (VZV): active; antiviral activity by PRA (HSV-1): not against HSV-1; antiviral activity by PRA (HSV-2): active; antiviral activity by PRA (CMV): not active

Which “antiviral activity by PRA” value (VZV) does the source give for `O=C(CNC(=O)c1cccc2ccccc12)N/N=C/c1ccc(F)cc1O` [Compound C2.20, N-{2-[(2E)-2-(4-fluoro-2-hydroxybenzylidene)hydrazinyl]-2-oxoethyl}naphthalene-1-carboxamide] here?
Its value is “as active”.

What about the “in vitro antiviral activity” value (VZV) of the same molecule?
Its value is “retained excellent activity”.

And the “therapeutic index (CC50/IC50)” value (Vero cells)?
Its value is 9.6.

What about the “in vitro antiviral activity” value (HSV-1) of the same molecule?
The value was “retained excellent activity”.

And the “antiviral activity by PRA” value (HSV-1)?
The value was “as active”.

And the “in vitro antiviral activity” value (HSV-2)?
Its value is “retained excellent activity”.

And the “antiviral activity by PRA” value (HSV-2)?
The value was “as active”.

What about the “antiviral activity by PRA” value (CMV) of the same molecule?
The value was “not active”.

What does the source list for `Cc1cccc(/C=C/NNC(=O)CNC(=O)c2cccc(Cl)c2)c1O` [Compound C3-1, 3-chloro-N-(2-{2-[(E)-2-(2-hydroxy-3-methylphenyl)ethenyl]hydrazinyl}-2-oxoethyl)benzamide]?
antiviral activity by PRA (VZV): not active; antiviral activity by PRA (HSV-1): not active; antiviral activity by PRA (HSV-2): not active; antiviral activity by PRA (CMV): not active

With `COC(=O)[C@H]1[C@H]2C[C@@H]3c4[nH]c5cc(OC)ccc5c4CCN3C[C@H]2C[C@@H](OC(=O)c2cc(OC)c(OC)c(OC)c2)[C@@H]1OC` [reserpine, reference compound] as the molecule, how does the half-life at 2 μM [2] read?
Its half-life at 2 μM is 43 min.

And the CLint scaled at 2 μM ([2]; reference compound, read-out: intrinsic clearance (Clint))?
Its CLint scaled at 2 μM is 28 mL/min/kg.
